From ChEMBL document CHEMBL5465560, “Selectivity Literature for EUbOPEN Chemogenomic Library” (2024) come the findings set out here.

For assay [1], the system named is Proto-oncogene tyrosine-protein kinase receptor Ret (Homo sapiens), P07949 [S891A]. Put plainly: (§1) Selectivity interaction (Kinase panel (Z-LYTE Assay)) EUB0001632a RET. Conditions: at 10 µM.
Assay [2] concerns Proto-oncogene tyrosine-protein kinase receptor Ret (Homo sapiens), P07949 [V804L]. Described as §1. Conditions: at 10 µM.
The subject of assay [3] is Proto-oncogene tyrosine-protein kinase receptor Ret (Homo sapiens), P07949 [Y791F]. Described as §1. Conditions: at 10 µM.
Assay [4] has as its target Proto-oncogene tyrosine-protein kinase receptor Ret (Homo sapiens, UniProt P07949). The description is as §1. Conditions: at 10 µM.
Assay [5] deals with Serine/threonine-protein kinase tousled-like 2 (Homo sapiens) (UniProt Q86UE8). Put plainly: Selectivity interaction (LanthaScreen Eu Kinase Binding Assay) EUB0001632a TLK2. Conditions: at 10 µM. (TR-FRET usually uses a lanthanide donor and a delayed reading to cut background.)
Sequence of Serine/threonine-protein kinase tousled-like 2 (Homo sapiens) (Q86UE8 whole entry, looked up): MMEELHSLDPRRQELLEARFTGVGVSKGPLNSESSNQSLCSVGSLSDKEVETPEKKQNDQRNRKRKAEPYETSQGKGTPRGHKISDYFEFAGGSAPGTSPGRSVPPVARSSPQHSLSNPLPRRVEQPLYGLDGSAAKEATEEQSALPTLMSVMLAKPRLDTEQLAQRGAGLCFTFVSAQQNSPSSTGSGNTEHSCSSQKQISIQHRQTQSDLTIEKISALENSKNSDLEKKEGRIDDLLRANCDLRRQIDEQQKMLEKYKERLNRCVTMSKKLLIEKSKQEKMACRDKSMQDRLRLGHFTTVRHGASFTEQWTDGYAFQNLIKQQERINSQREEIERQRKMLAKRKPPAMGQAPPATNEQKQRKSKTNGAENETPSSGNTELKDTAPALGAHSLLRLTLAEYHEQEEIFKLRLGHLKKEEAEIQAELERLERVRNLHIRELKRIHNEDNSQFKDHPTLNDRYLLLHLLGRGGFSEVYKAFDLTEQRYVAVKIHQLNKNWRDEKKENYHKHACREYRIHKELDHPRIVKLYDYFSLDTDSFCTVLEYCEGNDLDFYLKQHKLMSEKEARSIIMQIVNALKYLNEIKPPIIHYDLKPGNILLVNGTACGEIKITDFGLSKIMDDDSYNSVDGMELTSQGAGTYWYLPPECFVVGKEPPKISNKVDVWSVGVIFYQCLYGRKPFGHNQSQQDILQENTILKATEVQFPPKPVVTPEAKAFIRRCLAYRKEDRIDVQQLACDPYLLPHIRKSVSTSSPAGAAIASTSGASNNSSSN
The target in assay [6] is Serine/threonine-protein kinase 33 (Homo sapiens) (UniProt Q9BYT3). Conditions: at 10 µM.
Sequence of Serine/threonine-protein kinase 33 (Homo sapiens) (Q9BYT3 whole entry, looked up): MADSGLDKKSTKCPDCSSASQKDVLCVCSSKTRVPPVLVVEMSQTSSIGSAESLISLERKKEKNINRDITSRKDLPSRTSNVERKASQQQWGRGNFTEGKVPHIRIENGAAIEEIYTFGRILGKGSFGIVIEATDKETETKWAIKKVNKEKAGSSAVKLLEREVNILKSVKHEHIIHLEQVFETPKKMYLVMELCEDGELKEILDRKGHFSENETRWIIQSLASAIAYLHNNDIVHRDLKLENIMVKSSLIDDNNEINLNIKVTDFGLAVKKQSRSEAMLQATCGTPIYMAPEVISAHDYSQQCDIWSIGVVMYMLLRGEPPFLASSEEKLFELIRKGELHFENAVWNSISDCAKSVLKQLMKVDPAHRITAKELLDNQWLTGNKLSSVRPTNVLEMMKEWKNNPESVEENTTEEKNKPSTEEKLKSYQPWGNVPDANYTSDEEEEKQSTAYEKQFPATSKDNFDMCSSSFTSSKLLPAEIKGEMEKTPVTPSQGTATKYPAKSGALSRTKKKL
Assay [7] concerns the target Serine/threonine-protein kinase N2 (Homo sapiens, UniProt Q16513). Put plainly: Selectivity interaction (KinomeScan (DiscoverX)) EUB0000666a PKN2. Conditions: at 10 µM.
The subject of assay [8] is Epidermal growth factor receptor (Homo sapiens), P00533 [G719C]. The settings on record: at 10 µM.
The target in assay [9] is Ephrin type-A receptor 7 (Homo sapiens) (UniProt Q15375). Conditions: at 10 µM.
Sequence of Ephrin type-A receptor 7 (Homo sapiens) (Q15375 28-998 limits assumed): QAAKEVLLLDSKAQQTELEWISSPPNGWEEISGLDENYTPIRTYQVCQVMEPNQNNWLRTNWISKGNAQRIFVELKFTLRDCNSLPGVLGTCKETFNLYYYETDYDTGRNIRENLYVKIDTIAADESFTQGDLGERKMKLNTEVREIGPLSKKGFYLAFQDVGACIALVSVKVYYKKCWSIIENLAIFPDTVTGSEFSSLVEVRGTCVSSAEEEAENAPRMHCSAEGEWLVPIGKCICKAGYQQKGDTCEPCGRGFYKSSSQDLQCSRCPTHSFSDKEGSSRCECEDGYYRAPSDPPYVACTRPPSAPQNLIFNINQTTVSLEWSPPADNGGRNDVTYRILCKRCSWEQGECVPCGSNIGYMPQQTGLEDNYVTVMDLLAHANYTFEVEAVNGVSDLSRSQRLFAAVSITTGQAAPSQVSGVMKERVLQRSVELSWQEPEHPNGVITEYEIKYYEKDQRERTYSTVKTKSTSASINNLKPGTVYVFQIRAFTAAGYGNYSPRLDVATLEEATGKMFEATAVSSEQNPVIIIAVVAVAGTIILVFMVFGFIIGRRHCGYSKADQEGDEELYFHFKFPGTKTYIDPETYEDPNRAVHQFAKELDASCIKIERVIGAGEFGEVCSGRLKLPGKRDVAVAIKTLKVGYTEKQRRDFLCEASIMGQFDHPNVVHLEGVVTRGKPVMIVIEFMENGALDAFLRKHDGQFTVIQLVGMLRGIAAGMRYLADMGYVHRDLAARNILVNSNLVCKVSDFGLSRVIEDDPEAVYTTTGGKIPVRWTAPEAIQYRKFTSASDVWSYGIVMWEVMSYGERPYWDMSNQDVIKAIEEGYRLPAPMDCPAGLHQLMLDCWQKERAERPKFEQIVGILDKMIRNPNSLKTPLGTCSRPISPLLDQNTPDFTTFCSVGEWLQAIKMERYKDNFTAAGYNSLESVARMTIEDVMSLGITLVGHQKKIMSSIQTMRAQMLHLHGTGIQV
For assay [10], the target named is Calcium/calmodulin-dependent protein kinase type 1D (Homo sapiens) (UniProt Q8IU85). The assay can be described thus: Selectivity interaction (ActivX KiNativ screen (kinase selectivity in THP-1 cell lysates)) EUB0000639a CAMK1D. It is filed as subcellular. The settings on record: lysate, at 1 µM.
For assay [11], the target named is Ephrin type-A receptor 7 (Homo sapiens) (UniProt Q15375). The assay can be described thus: Selectivity interaction (Kinase panel (Invitrogen)) EUB0000639a EPHA7. The settings on record: at 200 nM.
A further assay addresses Focal adhesion kinase 1 (Homo sapiens, UniProt Q05397). Put plainly: Selectivity interaction (ActivX KiNativ screen (kinase selectivity in THP-1 cell lysates)) EUB0000639a PTK2. It is filed as subcellular. The settings on record: lysate, at 0.04 µM.
Assay [12] deals with T1, Phosphatidylinositol 5-phosphate 4-kinase type-2 gamma (Homo sapiens) (UniProt Q8TBX8).
T1 sequence (whole entry): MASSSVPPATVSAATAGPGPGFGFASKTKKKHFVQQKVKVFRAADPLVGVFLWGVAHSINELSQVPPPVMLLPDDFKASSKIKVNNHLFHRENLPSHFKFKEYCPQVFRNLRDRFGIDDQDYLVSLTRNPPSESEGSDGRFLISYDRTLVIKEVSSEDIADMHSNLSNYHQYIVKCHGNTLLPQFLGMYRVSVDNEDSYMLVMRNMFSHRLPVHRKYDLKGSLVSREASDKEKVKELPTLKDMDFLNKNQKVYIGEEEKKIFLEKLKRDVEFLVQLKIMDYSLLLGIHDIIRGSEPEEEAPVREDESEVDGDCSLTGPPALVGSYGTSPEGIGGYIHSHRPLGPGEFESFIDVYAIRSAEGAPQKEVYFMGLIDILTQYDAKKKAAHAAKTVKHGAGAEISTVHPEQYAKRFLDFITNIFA
The assay can be described thus: Selectivity interaction (ActivX KiNativ screen (kinase selectivity in THP-1 cell lysates)) EUB0000639a PIP4K2C. It is filed as subcellular. Conditions: lysate.

Assay [13] addresses Serine/threonine-protein kinase 10 (Homo sapiens) (UniProt O94804). The assay can be described thus: Selectivity interaction (ActivX KiNativ screen (kinase selectivity in THP-1 cell lysates)) EUB0000639a STK10. The class given is subcellular. Conditions: lysate, at 1 µM.
Assay [14] deals with Serine/threonine-protein kinase 16 (Homo sapiens, UniProt O75716). Put plainly: Selectivity interaction (KinomeScan (DiscoverX)) EUB0000618a STK16. Conditions: at 10 µM.
Assay [15] addresses T2, Mitogen-activated protein kinase kinase kinase 15 (Homo sapiens) (UniProt Q6ZN16).
T2 sequence (whole entry): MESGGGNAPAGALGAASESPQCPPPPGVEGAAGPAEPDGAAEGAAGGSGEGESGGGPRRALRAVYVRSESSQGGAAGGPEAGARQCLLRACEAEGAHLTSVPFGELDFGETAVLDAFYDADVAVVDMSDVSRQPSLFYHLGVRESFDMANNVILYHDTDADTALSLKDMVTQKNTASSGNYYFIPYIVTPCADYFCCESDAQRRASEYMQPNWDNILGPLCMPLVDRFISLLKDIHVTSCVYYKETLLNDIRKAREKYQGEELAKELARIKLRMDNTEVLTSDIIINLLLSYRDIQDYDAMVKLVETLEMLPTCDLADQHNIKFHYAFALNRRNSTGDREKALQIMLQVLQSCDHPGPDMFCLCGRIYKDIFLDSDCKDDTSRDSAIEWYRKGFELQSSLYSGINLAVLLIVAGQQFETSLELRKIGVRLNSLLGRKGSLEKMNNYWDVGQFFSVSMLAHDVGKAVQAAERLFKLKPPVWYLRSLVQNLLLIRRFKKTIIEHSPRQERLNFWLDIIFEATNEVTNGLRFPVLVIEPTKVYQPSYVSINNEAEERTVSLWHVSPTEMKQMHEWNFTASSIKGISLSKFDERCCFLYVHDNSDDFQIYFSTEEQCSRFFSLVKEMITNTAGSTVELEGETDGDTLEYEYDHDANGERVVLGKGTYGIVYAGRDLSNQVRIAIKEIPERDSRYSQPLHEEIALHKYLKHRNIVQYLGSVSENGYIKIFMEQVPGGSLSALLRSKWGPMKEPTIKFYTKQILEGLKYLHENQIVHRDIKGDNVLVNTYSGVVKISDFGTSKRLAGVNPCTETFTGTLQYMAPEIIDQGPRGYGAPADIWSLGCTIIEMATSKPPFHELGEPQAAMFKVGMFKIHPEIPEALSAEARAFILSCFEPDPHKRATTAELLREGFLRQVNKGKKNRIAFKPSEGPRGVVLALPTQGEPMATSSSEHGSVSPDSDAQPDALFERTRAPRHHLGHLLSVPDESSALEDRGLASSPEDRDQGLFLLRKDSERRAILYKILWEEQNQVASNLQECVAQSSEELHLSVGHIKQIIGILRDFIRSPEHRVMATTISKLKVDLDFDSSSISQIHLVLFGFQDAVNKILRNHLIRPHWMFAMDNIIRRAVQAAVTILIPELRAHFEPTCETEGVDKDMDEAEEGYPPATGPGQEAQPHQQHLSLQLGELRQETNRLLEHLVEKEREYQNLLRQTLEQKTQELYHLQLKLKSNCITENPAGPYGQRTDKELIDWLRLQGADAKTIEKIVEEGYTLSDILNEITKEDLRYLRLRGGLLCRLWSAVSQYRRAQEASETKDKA
The assay can be described thus: Selectivity interaction (KinomeScan (DiscoverX)) EUB0000092b MAP3K15. The settings on record: at 10 µM.

The target of assay [16] is Serine/threonine-protein kinase PLK2 (Homo sapiens, UniProt Q9NYY3). The assay can be described thus: Selectivity interaction (KinomeScan (DiscoverX)) EUB0000229b PLK2. Conditions: at 10 µM.
Sequence of Serine/threonine-protein kinase PLK2 (Q9NYY3 whole entry, looked up): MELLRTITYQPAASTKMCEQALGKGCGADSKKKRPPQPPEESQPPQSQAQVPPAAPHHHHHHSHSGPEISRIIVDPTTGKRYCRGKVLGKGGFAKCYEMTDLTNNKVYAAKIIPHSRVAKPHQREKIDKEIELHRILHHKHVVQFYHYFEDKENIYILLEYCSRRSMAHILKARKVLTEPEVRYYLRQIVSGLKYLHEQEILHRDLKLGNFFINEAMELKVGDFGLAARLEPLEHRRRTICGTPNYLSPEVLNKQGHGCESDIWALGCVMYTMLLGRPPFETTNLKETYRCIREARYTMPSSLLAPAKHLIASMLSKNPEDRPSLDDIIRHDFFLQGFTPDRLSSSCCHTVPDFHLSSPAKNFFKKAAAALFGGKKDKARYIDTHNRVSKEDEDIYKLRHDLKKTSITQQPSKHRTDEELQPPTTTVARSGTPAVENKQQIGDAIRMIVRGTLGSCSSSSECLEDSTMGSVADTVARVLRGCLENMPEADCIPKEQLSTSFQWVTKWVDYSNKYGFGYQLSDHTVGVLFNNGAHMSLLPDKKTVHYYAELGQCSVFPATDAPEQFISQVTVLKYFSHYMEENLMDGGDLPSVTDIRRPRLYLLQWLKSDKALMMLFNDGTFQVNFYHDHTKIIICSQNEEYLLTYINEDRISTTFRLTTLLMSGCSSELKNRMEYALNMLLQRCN

Sequence of Focal adhesion kinase 1 (Q05397 2-1052 limits assumed): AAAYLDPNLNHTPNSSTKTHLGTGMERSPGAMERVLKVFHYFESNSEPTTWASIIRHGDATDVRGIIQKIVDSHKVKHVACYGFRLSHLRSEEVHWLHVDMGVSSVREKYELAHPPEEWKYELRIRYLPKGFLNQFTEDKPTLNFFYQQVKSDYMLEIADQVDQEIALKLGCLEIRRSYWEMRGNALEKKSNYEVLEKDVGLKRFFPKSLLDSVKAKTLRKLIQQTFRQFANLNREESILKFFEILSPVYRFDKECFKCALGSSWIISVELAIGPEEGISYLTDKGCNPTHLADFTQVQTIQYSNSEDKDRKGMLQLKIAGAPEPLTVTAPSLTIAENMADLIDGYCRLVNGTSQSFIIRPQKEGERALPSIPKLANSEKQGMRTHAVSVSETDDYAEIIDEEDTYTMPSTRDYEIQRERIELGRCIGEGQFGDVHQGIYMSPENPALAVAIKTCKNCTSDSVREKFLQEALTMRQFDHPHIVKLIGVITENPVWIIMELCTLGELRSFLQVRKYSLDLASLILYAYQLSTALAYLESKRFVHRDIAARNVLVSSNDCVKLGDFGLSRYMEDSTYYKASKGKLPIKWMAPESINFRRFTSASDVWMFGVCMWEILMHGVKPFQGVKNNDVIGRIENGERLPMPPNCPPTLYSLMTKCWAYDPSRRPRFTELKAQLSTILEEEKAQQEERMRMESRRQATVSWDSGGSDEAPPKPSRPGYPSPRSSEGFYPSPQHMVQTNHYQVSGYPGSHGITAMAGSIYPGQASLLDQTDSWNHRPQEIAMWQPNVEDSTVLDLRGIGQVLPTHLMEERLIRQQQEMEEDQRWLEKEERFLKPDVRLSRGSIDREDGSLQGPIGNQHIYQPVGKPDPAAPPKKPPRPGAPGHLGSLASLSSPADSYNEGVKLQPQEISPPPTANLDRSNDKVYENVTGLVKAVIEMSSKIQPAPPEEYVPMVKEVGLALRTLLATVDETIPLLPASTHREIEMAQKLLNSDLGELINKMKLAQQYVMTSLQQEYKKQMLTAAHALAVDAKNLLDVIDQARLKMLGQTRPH
Sequence of Serine/threonine-protein kinase 10 (Homo sapiens) (O94804 whole entry, looked up): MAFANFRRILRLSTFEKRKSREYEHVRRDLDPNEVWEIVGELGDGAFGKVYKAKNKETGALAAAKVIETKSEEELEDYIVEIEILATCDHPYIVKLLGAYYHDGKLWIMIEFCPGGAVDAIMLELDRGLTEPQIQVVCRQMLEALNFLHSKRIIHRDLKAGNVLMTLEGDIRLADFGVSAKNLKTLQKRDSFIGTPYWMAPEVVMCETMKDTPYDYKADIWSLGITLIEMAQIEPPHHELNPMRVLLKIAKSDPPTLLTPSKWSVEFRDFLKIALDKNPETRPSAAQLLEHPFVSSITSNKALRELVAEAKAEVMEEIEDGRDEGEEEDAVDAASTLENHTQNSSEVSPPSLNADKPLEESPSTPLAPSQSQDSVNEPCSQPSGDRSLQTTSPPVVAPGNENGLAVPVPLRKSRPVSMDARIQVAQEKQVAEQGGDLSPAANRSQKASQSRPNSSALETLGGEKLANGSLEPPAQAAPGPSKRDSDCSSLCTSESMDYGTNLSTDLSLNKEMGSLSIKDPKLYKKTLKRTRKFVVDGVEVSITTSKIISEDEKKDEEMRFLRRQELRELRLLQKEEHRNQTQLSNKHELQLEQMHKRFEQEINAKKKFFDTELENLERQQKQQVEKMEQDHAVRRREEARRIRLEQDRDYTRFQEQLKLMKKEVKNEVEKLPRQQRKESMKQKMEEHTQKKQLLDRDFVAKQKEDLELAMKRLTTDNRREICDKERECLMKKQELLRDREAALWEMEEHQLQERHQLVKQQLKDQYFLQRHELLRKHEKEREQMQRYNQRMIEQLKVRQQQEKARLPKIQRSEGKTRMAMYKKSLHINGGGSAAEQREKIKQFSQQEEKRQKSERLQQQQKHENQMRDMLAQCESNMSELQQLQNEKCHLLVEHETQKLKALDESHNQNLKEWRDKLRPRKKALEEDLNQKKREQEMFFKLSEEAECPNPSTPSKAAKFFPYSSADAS

Consider `Cn1cc(-n2cnc3c(NCc4nc5cc(Cl)c(Cl)cc5[nH]4)nc(N4CCOCC4)nc32)cn1`, for which the % of control was 2.48% in assay [1], 6.91% in [2], 6.92% in assay [3] and 12% in [4]. Also, the % of inhibition in assay [5] was -11.9%.

In the case of `CCN(CC)CCCCNc1ncc2cc(-c3cc(OC)cc(OC)c3)c(NC(=O)NC(C)(C)C)nc2n1`, in [6], the % of control was determined as 100%.

`O=C(NOC[C@H](O)CO)c1ccc(F)c(F)c1Nc1ccc(I)cc1F` had a % of control in [7] of 100%.

Take `Cc1cc([C@@H](C)Nc2ccccc2C(=O)O)c2nc(N3CCOCC3)cc(=O)n2c1` [AZD-6482]: the % of control in assay [8] was 95%; in assay [9], 89%.

As to `CC[C@@H]1[C@H](F)C(=O)N[C@@H]1COc1nccc2cc(C(N)=O)c(OC)cc12` [ZIMLOVISERTIB], the % of inhibition in [10] was -1.2%; in assay [11], -7.96%; at Focal adhesion kinase 1, -20.7%; in [12] (at 0.01 µM), 6.3%; in [12] (at 0.04 µM), 19.8%; in assay [12] (at 0.2 µM), 55.9%. Besides, the % of inhibition in [12] (at 1 µM) is 83.6%; in assay [12] (at 5 µM), 93.9%; in assay [13], -16.6%.

For the compound `O[C@H]1CC[C@H](Nc2ncc3nc(Nc4c(F)cc(F)cc4F)n([C@H]4CCOC4)c3n2)CC1`, in [14], the % of control stood at 60%.

With `CCC(=O)N1CCN(c2ccc(-n3c(=O)ccc4cnc5ccc(-c6cnc7ccccc7c6)cc5c43)cc2C(F)(F)F)CC1`, the % of control in assay [15] turned out to be 100%.

Turning to `COc1cc(N(C)c2ccnc3ccc(C(F)(F)F)cc23)cc(OC)c1OC`, in assay [16], the % binding was 88%.
